Laboratory results taken from ChEMBL document CHEMBL3045884, “Synthesis, characterization, anticancer, and antioxidant activity of some new thiazolidin-4-ones in MCF-7 cells” (Med Chem Res, 2013).
≈ marks a conversion by molar mass, not a printed value. Calls of active or inactive are those of the source. The calls are words filed in the database; no cut-off is given here.

Experiments:
MCF7 [1] = assay: Anticancer activity against Homo sapiens (human) MCF-7 cells assessed as cell survival at 100 ug/ml after 24 hr by MTT assay (reference value: 100%); type: functional; details: MCF7, 24 h, read-out: Survival
MCF7 [2] = assay: Anticancer activity against Homo sapiens (human) MCF-7 cells assessed as cell survival at 10 ug/ml after 24 hr by MTT assay (reference value: 100%); type: functional; details: MCF7, 24 h, read-out: Survival
MCF7 [3] = assay: Anticancer activity against Homo sapiens (human) MCF-7 cells assessed as cell survival at 1 ug/ml after 24 hr by MTT assay (reference value: 100%); type: functional; details: MCF7, 24 h, read-out: Survival
MCF7 [4] = assay: Anticancer activity against Homo sapiens (human) MCF-7 cells assessed as inhibition of cell survival after 24 hr by MTT assay; type: functional, cell-based; details: MCF7, 24 h
MCF7 [5] = assay: Anticancer activity against Homo sapiens (human) MCF-7 cells assessed as cell survival at 0.1 ug/ml after 24 hr by MTT assay (reference value: 100%); type: functional; details: MCF7, 24 h, read-out: Survival
[6] = system: Radical scavenging activity; assay: Antioxidant activity assessed as DPPH radical scavenging activity after 20 min by ELISA plate reader analysis; type: functional
[7] = Antioxidant activity assessed as ABTS radical scavenging activity after 20 min by ELISA plate reader analysis; type: functional
MCF7 [8] = assay: Induction of apoptotic DNA fragmentation in Homo sapiens (human) MCF-7 cells assessed as formation of comets at 50 ug/ml after 24 hr by comet assay; type: functional, cell-based
MCF7 [9] = assay: Induction of apoptotic DNA fragmentation in Homo sapiens (human) MCF7 cells assessed as increase in tail length after 24 hr by comet assay; type: functional, cell-based
MCF7 [10] = assay: Induction of apoptotic DNA fragmentation in Homo sapiens (human) MCF-7 cells assessed as increase in olive tail moment after 24 hr by comet assay; type: functional, cell-based
MCF7 [11] = assay: Induction of apoptotic DNA fragmentation in Homo sapiens (human) MCF-7 cells assessed as increase in tail length at 0.1 uM after 24 hr by comet assay; type: functional, cell-based
MCF7 [12] = assay: Induction of apoptotic DNA fragmentation in Homo sapiens (human) MCF-7 cells assessed as formation of comets at 54 ug/ml after 24 hr by comet assay; type: functional, cell-based
MCF7 [13] = assay: Induction of apoptotic DNA fragmentation in Homo sapiens (human) MCF-7 cells assessed as increase in olive tail moment at 0.1 uM after 24 hr by comet assay; type: functional, cell-based

Compound	viability at 100 µg/mL (MCF7 [1])	viability at 10 µg/mL (MCF7 [2])	viability at 1 µg/mL (MCF7 [3])	IC50 (MCF7 [4])	viability at 0.1 µg/mL (MCF7 [5])	IC50 [6]	IC50 [7]	Activity (MCF7 [8])	Activity (MCF7 [9])	Activity (MCF7 [10])	Activity (MCF7 [11])	Activity (MCF7 [12])	Activity (MCF7 [13])
O=C1CSC(c2c[nH]nc2-c2ccc(F)cc2)N1n1c(S)nnc1COc1ccc2ccccc2c1 (stereo not given)	96.5%	99.8%	100%	> 100 µg/mL	100%	–	–	–	–	–	–	–	–
O=C1CSC(c2c[nH]nc2-c2ccc(F)cc2)N1n1c(S)nnc1COc1ccccc1 (stereo not given)	33.6%	76.5%	69.4%	30 µg/mL (≈ 64 µM)	65.9%	27.16 µg/mL (≈ 58 µM)	143.67 µg/mL (≈ 307 µM)	Active	Dose-dependent effect	Dose-dependent effect	–	–	–
O=C1CSC(c2c[nH]nc2-c2ccc(Cl)cc2)N1n1c(S)nnc1COc1ccc2ccccc2c1 (stereo not given)	50.7%	81.4%	100%	100 µg/mL (≈ 187 µM)	99.7%	–	–	–	–	–	–	–	–
COc1ccc(-c2n[nH]cc2C2SCC(=O)N2n2c(S)nnc2COc2ccccc2C)cc1 (stereo not given)	25.4%	84.7%	87%	29 µg/mL (≈ 58.6 µM)	81.5%	46.95 µg/mL (≈ 94.9 µM)	165.78 µg/mL (≈ 335 µM)	Active	Dose-dependent effect	Dose-dependent effect	–	–	–
O=C1CSC(c2c[nH]nc2-c2ccc(Cl)cc2)N1n1c(S)nnc1COc1cccc2ccccc12 (stereo not given)	51.8%	60.3%	70.5%	100 µg/mL (≈ 187 µM)	101%	–	–	–	–	–	–	–	–
COc1cccc2c1C(=O)c1c(O)c3c(c(O)c1C2=O)C[C@@](O)(C(=O)CO)C[C@@H]3O[C@H]1C[C@H](N)[C@H](O)[C@H](C)O1	–	–	–	–	–	–	–	–	–	–	Active	Active	Active
COc1ccc(-c2n[nH]cc2C2SCC(=O)N2n2c(S)nnc2COc2ccccc2)cc1 (stereo not given)	46.5%	96.8%	100%	85 µg/mL (≈ 177 µM)	100%	–	–	–	–	–	–	–	–
Cc1ccccc1OCc1nnc(S)n1N1C(=O)CSC1c1c[nH]nc1-c1ccc(F)cc1 (stereo not given)	62.1%	92.5%	83.1%	> 100 µg/mL	81.4%	–	–	–	–	–	–	–	–
Cc1ccc(OCc2nnc(S)n2N2C(=O)CSC2c2c[nH]nc2-c2ccc(F)cc2)cc1 (stereo not given)	71.4%	87.5%	74.7%	> 100 µg/mL	80.8%	–	–	–	–	–	–	–	–
O=C1O[C@H]([C@@H](O)CO)C(O)=C1O [ASCORBIC ACID]	–	–	–	–	–	18.74 µg/mL (≈ 106 µM)	31.53 µg/mL (≈ 179 µM)	–	–	–	–	–	–
Cc1ccccc1OCc1nnc(S)n1N1C(=O)CSC1c1c[nH]nc1-c1ccc(Cl)cc1 (stereo not given)	13.2%	67.6%	80.7%	22 µg/mL (≈ 44.1 µM)	70%	31.52 µg/mL (≈ 63.2 µM)	73.03 µg/mL (≈ 146 µM)	Active	Dose-dependent effect	Dose-dependent effect	–	–	–
COc1ccc(-c2n[nH]cc2C2SCC(=O)N2n2c(S)nnc2COc2ccc(C)cc2)cc1 (stereo not given)	43.7%	90.2%	95.4%	78 µg/mL (≈ 158 µM)	95%	–	–	–	–	–	–	–	–
